Results as given in the NIST ThermoML archive (doi:10.1021/acs.jced.8b01174).
Numbers after ± are expanded uncertainties.

What was measured:
[1] = wn = mass fraction of the nth substance listed; details: 97.7 kPa, Liquid, w2 = 0.874; for viscosity: Concentric cylinders viscometry; for mass density: Vibrating tube method
[2] = 97.7 kPa, Liquid; for viscosity: Concentric cylinders viscometry; for mass density: Vibrating tube method
[3] = molar heat capacity at constant pressure; details: 100 kPa, Liquid, DSC

## C1CNCCN1 [piperazine] + CN(CCO)CCO
[1]; 293.15 K
  viscosity: 150.46 ± 4.3 mPa·s
  mass density: 1036 ± 3 kg/m3
[1]; 303.15 K
  viscosity: 79.46 ± 2.3 mPa·s
  mass density: 1029 ± 3 kg/m3
[1]; 313.15 K
  viscosity: 45.07 ± 1.3 mPa·s
  mass density: 1021 ± 3 kg/m3
[1]; 323.15 K
  viscosity: 27.24 ± 0.81 mPa·s
  mass density: 1014 ± 3 kg/m3
[1]; 333.15 K
  viscosity: 17.41 ± 0.54 mPa·s
  mass density: 1006 ± 3 kg/m3
[1]; 343.15 K
  viscosity: 11.68 ± 0.4 mPa·s
  mass density: 999 ± 3 kg/m3
[1]; 353.15 K
  viscosity: 8.18 ± 0.27 mPa·s
  mass density: 991 ± 3 kg/m3
[1]; 363.15 K
  viscosity: 5.93 ± 0.2 mPa·s
  mass density: 983 ± 3 kg/m3

## O [water]
[2]; 293.15 K
  viscosity: 1 ± 0.02 mPa·s
  mass density: 998 ± 2 kg/m3
[2]; 303.15 K
  viscosity: 0.8 ± 0.02 mPa·s
  mass density: 996 ± 2 kg/m3
[2]; 313.15 K
  viscosity: 0.65 ± 0.02 mPa·s
  mass density: 992 ± 2 kg/m3
[2]; 323.15 K
  viscosity: 0.55 ± 0.02 mPa·s
  mass density: 988 ± 2 kg/m3
[2]; 333.15 K
  viscosity: 0.47 ± 0.02 mPa·s
  mass density: 983 ± 2 kg/m3
[2]; 343.15 K
  viscosity: 0.4 ± 0.02 mPa·s
  mass density: 978 ± 2 kg/m3
[2]; 353.15 K
  viscosity: 0.35 ± 0.02 mPa·s
  mass density: 972 ± 2 kg/m3
[2]; 363.15 K
  viscosity: 0.31 ± 0.02 mPa·s
  mass density: 965 ± 2 kg/m3
[3]; 298.15 K
  molar heat capacity at constant pressure: 74.8 ± 3.5 J/K/mol
[3]; 308.15 K
  molar heat capacity at constant pressure: 74.78 ± 3.5 J/K/mol
[3]; 318.15 K
  molar heat capacity at constant pressure: 74.93 ± 3.5 J/K/mol
[3]; 328.15 K
  molar heat capacity at constant pressure: 75.02 ± 3.5 J/K/mol
[3]; 338.15 K
  molar heat capacity at constant pressure: 75.07 ± 3.5 J/K/mol
[3]; 348.15 K
  molar heat capacity at constant pressure: 75.21 ± 3.6 J/K/mol
